According to patent US20250281610A1, “P2RY2 ACTIVITY MODULATORS” (Deutsches Krebsforschungszentrum Stiftung des öffentlichen …, priority 2022, published 2025):

System: CEA-specific CAR transduced T cells co-cultured with SW480 cells
Assay: T cell activation in co-culture of CEA-specific CAR-T cells with SW480 cells
Format: cell-based, human
Details: 10 μM AR-C, 24 hours, CD3+CD8+ or CD3+CD4+ population (FIG. 19)
Experimental: FIG. 19. Effects of P2RY2 agonist and P2RY2 antagonist on T cell activity in T cell-cancer cell co-cultures. T cells transduced with a CEA-specific CAR (CAR-T) were co-cultured with genetically edited SW480 cells for 24 hours in the absence or presence of 40 μM ATP, 200 μM ATPγS, 10 μM Diquafosol, 5 μM Denufosol and 10 μM AR-C 118925XX (AR-C). Control cells: SW480 cells transduced with non-targeting sgRNA and Cas9 (gNT); P2RY2 deficient cells: SW480 cells transduced with P2RY2-targeting sgRNA and Cas9 (gP2RY2-3, gP2RY2-4); B7-H3 (CD276) deficient cells: SW480 cells transduced with B7-H3-targeting sgRNA and Cas9 (gCD276-1); P2RY2 and B7-H3 double deficient cells: SW480 cells transduced with P2RY2-targeting sgRNA, B7-H3-targeting sgRNA, and Cas9 (gCD276-1 gP2RY2-3 DKO, gCD276-1 gP2RY2-4 DKO); P2RY2 overexpression cells: SW480 cells transduced with the open reading frame of P2RY2 (P2RY2-OE); B7-H3 overexpression cells: SW480 cells transduced with the open reading frame of CD276 (CD276-OE). Transduced cancer cells were selected by antibiotics according to antibiotic resistance genes carried by the lentiviral constructs. Flow cytometry analysis of expression of CD25 and CD69 and production of IFNγ within the CD3+CD8+ or CD3+CD4+ cell population is shown (values indicate the percentages of positive cells).
MART-1 specific T cells were generated as described (Mezzadra et al., Nature 549, 106-110 (2017); Jorritsma et al., Blood 110 (10): 3564-3572. (2007)). To generate CD33-specific chimeric antigen receptor (CAR) T cells and CEA-specific CAR-T cells, a CD33Hul95-CD28Z CAR (described in WO 2019/178382) cassette and MFE-23 (described in US20050147614A1)-CD28Z CAR were separately cloned into retroviral vectors, and the resulting virus was used to transduce T cells as described (Mezzadra et al., Nature 549, 106-110 (2017); Jorritsma et al., Blood 110 (10): 3564-3572. (2007)).
The open reading frames of transcripts of P2RY2 (ENST00000393597.7) or CD276 (ENST00000318443.10), were ordered as a codon optimized gBlock Gene Fragment (Integrated DNA Technologies or Twist Bioscience) and cloned into a lentiviral vector containing a blasticidin selection cassette. Constructs were verified by Sanger sequencing.
MART1-specific CD8+ T cells and MART1 epitope-expressing cancer cells were mixed at a ratio of 1:16 to 1:1. CD33 CAR-T cells and CD33 expressing THP-1 cells were mixed at a ratio of 1:16 to 1:4. CEA CAR-T cells and CEA expressing SW480 cells were mixed at a ratio of 1:1. Next, cells were centrifugated at 1,600 g for 3 min and incubated at 37° C. and 5% CO2 for 12-72 hours. T cell activation was assessed by surface staining with anti-CD137-BV421 (4-1BB, Biolegend), anti-CD137-PE/Cy7 (4-1BB, Biolegend), anti-CD69-APC/Fire™ 750 (FN50, Biolegend), anti-CD25-AF700 (BC96, Biolegend), anti-CD25-APC (BC96, Biolegend) antibodies and intracellular staining with anti-IL-2-PE/Cy7 (MQ1-17H12, Biolegend), anti-IFN-7-BV421 (4S.B3, Biolegend), anti-TNF-α-BV785 (MAb11, Biolegend), anti-TNF-α-APC (MAb11, Biolegend) antibodies, followed by flow cytometry analysis. For intracellular staining, brefeldin A (Biolegend) was added to the cell culture medium 4 h before cells were harvested. The viability of cancer cells that grow in suspension including THP-1 cells was assessed by flow cytometry-based absolute cell counting using AccuCount beads (Spherotech). For adherent cancer cells including BxPC3, MIA PaCa-2, MDA-MB-231 and MCF7, the cell viability was quantified using CellTiter-Blue Cell Viability Assay (Promega).

Cc1ccc2c(c1)C=Cc1cc(C)ccc1C2c1cn(Cc2ccc(C(=O)Nc3nn[nH]n3)o2)c(=O)[nH]c1=S [AR-C 118925XX]
increased: expression of T cell activation marker CD25 | expression of T cell activation marker CD69 | expression of T cell activation marker IFN-7
